Like-named read-outs stand apart in the source and are kept apart here.
Assays:
[1] = Shell stability on exposure to aqueous fill composition (half-shell integrity test, H.S.I.T.); conditions: for content in fill composition for an HSIT rating of at least 3: PVP and water fill, lipophilic fill-grade BANNER SGC
Description: A study was conducted to determine whether or not complexation of a drug to the SAE-CD alters the ability of the SAE-CD to stabilize the capsule shell against dissolution, erosion, swelling or degradation caused by water in the fill composition enclosed within the capsule shell. Banner's hydrophilic, HFB, and lipophilic, LFB, air fill size 35 oval gelatin capsules were used in this study, which was performed as described below. […] The SAE-CD was slowly added to the water while it was stirring and on a hot plate. Agitation continued until all the SAE-CD dissolved. The SAE-CD was divided by weighing in equal amounts into nine vials (one for each drug). […] The amount of drug added produced a composition that contained a normal dose of drug in 1 gram. The vials were agitated and heated until a solution was obtained or the active was uniformly suspended. […]
Method A: Half-Shell integrity Test (H.S.I.T.)
In a closed container, a portion of a capsule shell is exposed to an aqueous fill composition comprising a known amount of derivatized cyclodextrin, water and optionally one or more other excipients. Observation of changes, or lack thereof, on the exposed portion's size, appearance, shape, dissolution, erosion, degradation, hardness, and/or translucence are recorded periodically over time. A rating scale is used to quantify the overall performance of the capsule portion during the test.

[2] = H.S.I.T. with SAE-CD, PVP and water fill compositions; format: physicochemical
Description: FIGS. 10a-10i depict ternary graphs correlating the concentration of SAE-CD, water and PVP in a fill composition to the H.S.I.T. rating of a soft shell capsule exposed to the fill composition. Aqueous fill solutions comprising differing amounts of PVP, SAE-CD and water were prepared. The stability tests were conducted as described below. The capsules described herein were used: SHIONOGI HGC (hard gelatin capsule) (FIG. 10A), […] HPMC hard shell capsule (FIG. 10b), SHIONOGI HPMC hard shell capsule (FIG. 10C), […] HGC (FIG. 10D), VEGAGEL hard shell capsule (FIG. 10E), hydrophilic fill-grade CARDINAL SGC (soft gelatin capsule) (FIG. 10f), lipophilic fill-grade CARDINAL SGC (FIG. 10g), hydrophilic fill-grade BANNER SGC (FIG. 10h), and lipophilic fill-grade BANNER SGC (FIG. 10i). No other shell-stabilizing material(s) was (were) included in the fill compositions evaluated. The results varied according to the capsule used. Stabilized aqueous fill composition-containing capsule formulations can be achieved with each capsule if one or more of the following fill compositions detailed below are used. • 1. Water comprises ≧55% of the fill composition, and the combination of SAE-CD, PVP, one or more optional excipients and one or more optional active agents comprises ≧45% of the fill composition; wherein SAE-CD can comprise up to 90% (85%, 83%, or 80%) of the weight of the fill composition, and PVP can comprise less than 90%, respectively, of the weight of the fill composition, provided that the fill composition comprises >≧35% PVP when SAE-CD comprises […]; ≦15% of the weight of the fill composition, and wherein both PVP (preferably water soluble or water swellable) and SAE-CD are present. • 2. Water comprises ≦45% of the fill composition, and the combination of SAE-CD, PVP, one or more optional excipients and one or more optional active agents comprises ≧55% of the fill composition; wherein SAE-CD can comprise up to 90% (85%, 83%, or 80%) of the weight of the fill composition, and PVP can comprise less than 90%, respectively, of the weight of the fill composition, provided that the fill composition comprises ≧35% PVP when SAE-CD comprises ≦20% of the weight of the fill composition, and wherein both PVP (preferably water soluble or water swellable) and SAE-CD are present. • 3. […]

[3] = Hard shell capsule stability in aqueous SBE-CD solutions; format: physicochemical; conditions: hardcap
Description: Two types of hard shell capsules obtained from […] were evaluated. A conventional hard gelatin capsule (HCAP) and a hard HPMC (hydroxypropyl methylcellulose) capsule (VCAP) were evaluated under identical conditions using aqueous solutions differing in the concentration of SBE-CD (sulfobutyl ether cyclodextrin).

[4] = Shell stability toward aqueous fill composition, statements on soft gelatin capsules; format: physicochemical; conditions: for stability provided to capsules: about ≧50% wt.
[5] = SHIONOGI HPMC hard shell capsule
[6] = 40% wt. cyclodextrin derivative in water, LFB
[7] = 50% wt. cyclodextrin derivative in water, LFB
[8] = 55% wt. cyclodextrin derivative in water, LFB
[9] = 60% wt. cyclodextrin derivative in water, LFB

O [Water]
content in fill composition for a stabilized capsule formulation ([1]; SAE-CD, PEG and water fill, LFB): ≦50%
content in fill composition for an HSIT rating of at least 3 ([1]; SAE-CD): ≦54%
content in fill composition for an HSIT rating of at least 3 ([2]; SHIONOGI HGC): ≦54%
content in fill composition for an HSIT rating of at least 3 [2, 5]: ≦60%

sulfobutyl ether cyclodextrin [SAE-CD]
content in fill composition for a stabilized capsule formulation [1]: ≧18%
Increase in shell size [1, 6]: 2.5× × original
Observations [1, 6]: shape intact
Time for failure [1, 6]: 3 days
Increase in shell size [1, 7]: 2.5 × original
Observations [1, 7]: Deformed
Time for failure [1, 7]: 7 days
Increase in shell size [1, 8]: 2 × original
Observations [1, 8]: Deformed
Time for failure [1, 8]: 10 days
Increase in shell size [1, 9]: no change in length
Observations [1, 9]: Slight
Time for failure [1, 9]: ≧21 days
content in fill composition for an HSIT rating of at least 3 ([1]; SAE-CD): ≧6%
content in fill composition for an HSIT rating of at least 3 ([2]; SHIONOGI HGC): ≧6%
content in fill composition for an HSIT rating of at least 3 [2, 5]: ≧6%
Observations ([3]; 30% SBE solution): deformed/bends
failure time ([3]; 30% SBE solution): 24 h
size ([3]; 30% SBE solution): 2 × × length
Observations ([3]; 40% SBE solution): deformed/closed
failure time ([3]; 40% SBE solution): 48 h
size ([3]; 40% SBE solution): >2 × × width
Observations ([3]; 50% SBE solution): deformed/closed
failure time ([3]; 50% SBE solution): 48 h
size ([3]; 50% SBE solution): 2 × × width
Observations ([3]; 60% SBE solution): closed/stuck
failure time ([3]; 60% SBE solution): 96 h
size ([3]; 60% SBE solution): 2 × × width
shelf-life of soft gelatin capsules ([4]; 50% wt. or more based upon total weight of water and SAE-CD or of the fill composition): at least one week
stability provided to capsules ([4]; LFB and LFC soft gelatin capsules as printed, FIG. 2): at least a one week stability
stability provided to capsules ([4]; LFB and LFC soft gelatin capsules, FIG. 1): at least a one week stability
water activity of fill composition that forms a stable soft gelatin capsule formulation ([4]; fill composition comprising SBE-CD, PEG and water, FIG. 8): ≤ 0.90±0.02
stability of shell toward fill composition ([4]; soft gelatin shells from BANNER PHARMACAPS, less than 40% by wt. SAE-CD): unstable
stability of shell toward fill composition ([4]; soft gelatin shells from BANNER PHARMACAPS, ≧50% wt. SAE-CD): stable for at least one week
stability of shell toward fill composition ([4]; soft gelatin shells from BANNER PHARMACAPS, ≧55% wt. SAE-CD): stable for at least ten days
stability of shell toward fill composition ([4]; soft gelatin shells from BANNER PHARMACAPS, ≧60% wt. SAE-CD): stable for at least three weeks
stability of shell toward fill composition ([4]; soft gelatin shells from CARDINAL HEALTH, less than 40% by wt. SAE-CD): unstable
stability of shell toward fill composition ([4]; soft gelatin shells from CARDINAL HEALTH, ≧50% wt. SAE-CD): stable for at least one week
stability of shell toward fill composition ([4]; soft gelatin shells from CARDINAL HEALTH, ≧55% wt. SAE-CD): stable for at least two weeks
time the capsules were stable ([4]; soft gelatin shells from CARDINAL HEALTH, ≧60% wt. SAE-CD): at least 21 days
water activity of fill composition that provides an increase in the stability of the shell ([4]; soft-gelatin capsule, the agent alone in water): less than 0.95
